Measured values from publication PMC7762828 (Journal of medicinal chemistry, 2020).

Assays:
[1] = system: leukemia cell lines; assay: CellTiter-Glo cell viability assay, panel of seven leukemia cell lines; type: cell-based; settings: 72 h, read-out: cell viability IC50
[2] = system: T-ALL cell line (HSB-2); assay: Combinatorial high throughput drug screen; type: cell-based
[3] = system: HL60 cells; assay: Western blot of protein acetylation in HL60 cells; type: cell-based; settings: HL60, 24 h, two concentrations, immunoblot
[4] = system: HL60 cells; assay: Annexin V-propidium iodide apoptosis assay; type: cell-based; settings: HL60, 24 h
[5] = target: Human recombinant HDAC4 (Homo sapiens, UniProt P56524); assay: HDAC4 inhibition assay; type: biochemical; settings: selectivity for HDAC6 over HDAC4
Human recombinant HDAC4, sequence (P56524 whole entry): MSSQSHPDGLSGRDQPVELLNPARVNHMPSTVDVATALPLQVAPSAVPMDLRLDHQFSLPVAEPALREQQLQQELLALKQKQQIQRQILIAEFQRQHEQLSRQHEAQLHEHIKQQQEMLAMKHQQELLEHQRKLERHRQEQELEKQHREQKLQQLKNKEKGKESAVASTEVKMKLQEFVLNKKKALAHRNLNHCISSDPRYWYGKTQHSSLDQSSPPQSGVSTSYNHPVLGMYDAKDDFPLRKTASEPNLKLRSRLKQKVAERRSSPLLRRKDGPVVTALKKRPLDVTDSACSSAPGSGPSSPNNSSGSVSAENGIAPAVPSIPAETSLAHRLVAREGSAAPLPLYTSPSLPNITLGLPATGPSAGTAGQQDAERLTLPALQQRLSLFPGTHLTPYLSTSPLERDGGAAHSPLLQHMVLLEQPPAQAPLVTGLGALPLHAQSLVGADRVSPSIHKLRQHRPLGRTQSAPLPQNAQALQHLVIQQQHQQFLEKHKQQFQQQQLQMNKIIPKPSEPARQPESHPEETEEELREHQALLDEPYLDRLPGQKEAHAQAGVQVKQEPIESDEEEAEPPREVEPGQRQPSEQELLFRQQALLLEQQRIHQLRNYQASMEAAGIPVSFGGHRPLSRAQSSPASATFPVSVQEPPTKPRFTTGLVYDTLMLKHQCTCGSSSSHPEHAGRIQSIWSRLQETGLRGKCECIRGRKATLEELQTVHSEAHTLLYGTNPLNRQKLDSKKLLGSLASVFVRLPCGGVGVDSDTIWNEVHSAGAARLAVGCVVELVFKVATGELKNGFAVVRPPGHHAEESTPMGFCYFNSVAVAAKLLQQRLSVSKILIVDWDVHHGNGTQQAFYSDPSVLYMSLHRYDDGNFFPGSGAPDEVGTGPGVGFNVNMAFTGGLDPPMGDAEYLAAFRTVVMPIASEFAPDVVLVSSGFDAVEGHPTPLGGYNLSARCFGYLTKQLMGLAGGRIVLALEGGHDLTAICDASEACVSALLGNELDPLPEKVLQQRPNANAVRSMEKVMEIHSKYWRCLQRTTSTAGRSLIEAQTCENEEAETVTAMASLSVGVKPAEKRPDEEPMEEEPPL

IC50 [1]: > 20 µM
SI (HDAC4 vs HDAC6) [5]: 1857
SMILES: O=C(NO)c1ccc(CN(Cc2nnnn2Cc2ccccc2)C(=O)c2ccccc2C(F)(F)F)cc1 [6l]
cytotoxic activity in combination with anthracyclines ([2]; HSB-2, 6l […] and 5 μM with epirubicin (Epi) and daunorubicin (Dauno)): significant enhancement of cytotoxic activity
cytotoxicity as single agent ([2]; HSB-2, 6l alone): unable to affect the cytotoxicity
acetylation status of histone H3 (ac-H3), marker for class I HDAC inhibition [3]: unaffected
α-tubulin acetylation (ac-α-tubulin), marker for HDAC6 inhibition [3]: induced α-tubulin acetylation
cytotoxic effect as single agent (number of viable cells) ([4]; 6l alone at 2.5 or 5 μM): no cytotoxic effect
apoptosis induction in combination with BTZ (late apoptotic/dead cells) ([4]; combination with bortezomib (BTZ) versus BTZ alone): augmented the apoptosis induction of BTZ
